Structures are written as SMILES. Like-named read-outs stand apart in the source and are kept apart here. Some results are limits rather than exact numbers.

Here are results for 1 molecule from PMC7369637, “Inhibition of Resistance-Refractory P. falciparum Kinase PKG Delivers Prophylactic, Blood Stage, and Transmission-Blocking Antiplasmodial Activity” (Cell Chemical Biology, 2020).

The subject of assay [1] is 3D7-A10 parasites (rings, trophozoites, schizonts). The assay is described as follows: ABS stage-specific 8-h exposure assay on highly synchronized parasites. The format is cell-based, Plasmodium falciparum. The conditions noted are these: for IC50: 3D7-A10, 8 h exposure. On the procedure: Synchronicity was achieved using three rounds of sorbitol treatment on early rings, spaced 48 h apart, followed by magnetic purification of segmented schizonts following the final sorbitol treatment. Parasites were highly synchronous to within a 3 h window of development. Assays were repeated on at least three independent occasions (each with technical duplicates) and statistical significance was assessed using Mann Whitney U tests.

Assay [2] addresses T1, human protein extracts (Mixed: HEK-293/ K-562/ Placenta/ Hep G2) (Homo sapiens, UniProt P21127).
T1 construct: endogenous in cells; host or cells: mixture of HEK-293, K-562, Hep G2 and placenta
The assay is described as follows: Chemoproteomic profiling, MS/MS data for all quantified proteins (Table S1 E3). The class given is binding. On the procedure: (§1) Human extracts were prepared as described ([Bantscheff et al., 2011]). Briefly, frozen cell pellets were homogenized in lysis buffer (50 mM Tris-HCl, 0.8% Igepal-CA630, 5% glycerol, 150 mM NaCl, 1.5 mM MgCl2, 25 mM sodium fluoride, 1 mM sodium vanadate, 1 mM DTT, pH 7.5). One cOmplete EDTA-free protease inhibitor tablet (Roche) was added per 25 ml. Samples were dispersed using a Dounce homogenizer, rotated for 30 min at 4°C, and centrifuged at 20,000g for 10 min at 4°C. Supernatants were then recentrifuged at 145,000g for 1 h at 4°C. Protein concentrations were determined using a Bradford assay (BioRad). Aliquots were snap frozen in liquid nitrogen and stored at −80°C.
(§2) Kinobeads were prepared by immobilizing Bis-(III) indolyl-maleimide, purvalanol B, staurosporine and CZC8004, and the analogs of PD173955, sunitinib and vandetanib on NHS-activated Sepharose 4 beads (Amersham) ([Bantscheff et al., 2007]). […] The chemoproteomic affinity-capturing experiments were performed as previously described ([Bantscheff et al., 2011]). Briefly, beads were washed and equilibrated in lysis buffer (50 mM Tris-HCl, pH 7.4, 0.4 % Igepal-CA630, 1.5 mM MgCl2, 5 % Glycerol, 150 mM NaCl, 25 mM NaF, 1 mM Na3VO4, 1 mM DTT, and one cOmplete EDTA-free protease inhibitor tablet (Roche) per 25 mL). […] 10 samples were measured in parallel (TMT 10-plex ([Werner et al., 2014])) to generate values for the affinity of the beads to the bound proteins (“depletion” values, 4 samples) and to generate IC50 values (6 samples) in a single experiment. Apparent dissociation constants were determined after accounting for protein depletion by the beads ([Bantscheff et al., 2011]). […]
(§3) Proteins were digested according to a modified single pot solid-phase sample preparation (SP3) protocol ([Hughes et al., 2014]). Peptides were labeled with isobaric mass tags (Thermo Fisher Scientific, Waltham, MA) using 10-plex TMT reagents, enabling relative quantification of 10 conditions in a single experiment ([Werner et al., 2014]). […]

Assay [3] concerns the target T2, human protein extracts (Mixed: HEK-293/ K-562/ Placenta/ Hep G2) (Homo sapiens, UniProt Q7L576).
T2 construct: endogenous in cells; host or cells: mixture of HEK-293, K-562, Hep G2 and placenta
The assay is described as above. The format is binding. On the procedure:
as §1, §2, §3

Assay [4] deals with T3, human protein extracts (Mixed: HEK-293/ K-562/ Placenta/ Hep G2) (Homo sapiens, UniProt P08240).
T3 construct: endogenous in cells; host or cells: mixture of HEK-293, K-562, Hep G2 and placenta
T3 sequence (P08240 whole entry): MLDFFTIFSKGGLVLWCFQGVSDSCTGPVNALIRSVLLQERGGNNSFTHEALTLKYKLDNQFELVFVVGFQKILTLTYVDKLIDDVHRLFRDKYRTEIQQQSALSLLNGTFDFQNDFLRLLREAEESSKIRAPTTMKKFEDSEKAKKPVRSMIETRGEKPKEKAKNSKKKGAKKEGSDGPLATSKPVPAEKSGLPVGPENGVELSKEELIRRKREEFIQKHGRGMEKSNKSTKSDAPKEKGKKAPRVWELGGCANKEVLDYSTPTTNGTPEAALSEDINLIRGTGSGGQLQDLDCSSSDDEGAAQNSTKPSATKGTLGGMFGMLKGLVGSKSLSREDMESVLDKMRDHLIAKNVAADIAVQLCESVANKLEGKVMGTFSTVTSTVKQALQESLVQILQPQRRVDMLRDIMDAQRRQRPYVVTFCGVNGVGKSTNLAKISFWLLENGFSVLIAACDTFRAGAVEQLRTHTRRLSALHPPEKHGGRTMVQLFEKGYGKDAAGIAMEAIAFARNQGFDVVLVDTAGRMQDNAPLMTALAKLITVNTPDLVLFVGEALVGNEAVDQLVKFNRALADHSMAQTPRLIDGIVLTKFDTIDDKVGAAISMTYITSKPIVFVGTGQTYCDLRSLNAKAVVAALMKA
The description is as above. The format is binding. On the procedure: as §1, §2, §3

T2 sequence (Q7L576 whole entry): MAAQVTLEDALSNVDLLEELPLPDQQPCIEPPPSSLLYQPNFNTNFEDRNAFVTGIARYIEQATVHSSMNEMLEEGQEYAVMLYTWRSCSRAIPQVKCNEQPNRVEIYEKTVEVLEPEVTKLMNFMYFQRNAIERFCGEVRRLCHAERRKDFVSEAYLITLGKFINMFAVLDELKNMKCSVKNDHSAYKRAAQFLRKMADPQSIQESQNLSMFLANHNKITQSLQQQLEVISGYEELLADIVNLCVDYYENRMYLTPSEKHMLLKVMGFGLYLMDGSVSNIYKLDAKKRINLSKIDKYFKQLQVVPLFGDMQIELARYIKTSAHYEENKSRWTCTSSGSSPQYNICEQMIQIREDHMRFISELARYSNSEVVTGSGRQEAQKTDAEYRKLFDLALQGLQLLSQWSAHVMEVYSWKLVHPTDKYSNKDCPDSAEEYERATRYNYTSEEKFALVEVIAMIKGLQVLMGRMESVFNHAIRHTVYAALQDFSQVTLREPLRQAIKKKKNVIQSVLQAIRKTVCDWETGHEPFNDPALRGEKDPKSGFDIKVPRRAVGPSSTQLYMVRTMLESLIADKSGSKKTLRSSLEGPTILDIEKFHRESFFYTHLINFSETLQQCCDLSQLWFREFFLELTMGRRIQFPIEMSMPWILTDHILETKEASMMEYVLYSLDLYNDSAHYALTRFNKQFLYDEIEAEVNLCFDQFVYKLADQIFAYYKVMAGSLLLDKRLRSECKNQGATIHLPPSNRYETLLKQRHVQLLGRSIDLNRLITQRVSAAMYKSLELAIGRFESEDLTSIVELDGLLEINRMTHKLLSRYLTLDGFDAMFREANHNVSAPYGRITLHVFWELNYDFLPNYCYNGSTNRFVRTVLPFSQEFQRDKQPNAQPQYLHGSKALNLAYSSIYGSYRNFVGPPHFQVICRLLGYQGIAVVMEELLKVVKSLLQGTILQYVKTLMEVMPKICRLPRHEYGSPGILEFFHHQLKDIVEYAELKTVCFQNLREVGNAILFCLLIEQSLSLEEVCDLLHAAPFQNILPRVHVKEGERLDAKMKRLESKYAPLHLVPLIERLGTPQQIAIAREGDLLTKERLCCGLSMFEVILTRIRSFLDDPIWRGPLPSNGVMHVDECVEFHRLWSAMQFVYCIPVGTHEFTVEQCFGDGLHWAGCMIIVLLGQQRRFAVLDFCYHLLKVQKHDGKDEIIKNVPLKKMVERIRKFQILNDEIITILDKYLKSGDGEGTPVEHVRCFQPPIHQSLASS
T1 sequence (P21127 whole entry): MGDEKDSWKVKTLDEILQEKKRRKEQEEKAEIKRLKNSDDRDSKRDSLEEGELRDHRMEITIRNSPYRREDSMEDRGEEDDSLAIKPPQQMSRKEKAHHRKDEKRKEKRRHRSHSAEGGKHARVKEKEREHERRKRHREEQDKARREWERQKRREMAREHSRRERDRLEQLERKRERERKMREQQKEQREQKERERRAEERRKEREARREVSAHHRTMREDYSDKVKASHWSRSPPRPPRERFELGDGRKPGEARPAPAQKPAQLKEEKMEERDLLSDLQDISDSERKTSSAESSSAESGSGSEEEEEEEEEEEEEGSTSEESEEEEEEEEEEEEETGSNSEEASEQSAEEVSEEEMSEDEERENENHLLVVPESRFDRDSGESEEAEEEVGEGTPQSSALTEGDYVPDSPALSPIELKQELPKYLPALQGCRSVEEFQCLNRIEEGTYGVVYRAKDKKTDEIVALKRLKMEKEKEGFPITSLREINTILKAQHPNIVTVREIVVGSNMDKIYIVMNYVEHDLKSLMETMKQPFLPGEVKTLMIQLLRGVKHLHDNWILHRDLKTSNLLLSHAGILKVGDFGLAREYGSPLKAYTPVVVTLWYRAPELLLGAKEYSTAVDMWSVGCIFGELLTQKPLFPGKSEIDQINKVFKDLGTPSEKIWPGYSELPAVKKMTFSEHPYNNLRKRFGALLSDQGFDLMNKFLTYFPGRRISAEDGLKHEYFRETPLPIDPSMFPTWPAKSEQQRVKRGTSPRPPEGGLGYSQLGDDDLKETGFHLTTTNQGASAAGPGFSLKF

As for `CC(C)(CN)c1nc(-c2ccc(Cl)c(O)c2)c(-c2ccncc2)[nH]1` [MMV030084], the IC50 in assay [1] (first shift of biphasic curve, read-out: Mean IC50, schizont biphasic shift 1) came to 0.0956 µM; in assay [1] (second shift of biphasic curve, read-out: Mean IC50, schizont activity shift 2), 3.93 µM; in assay [1] (read-out: Mean IC50, late ring stage activity) it was 5.87 µM; in assay [1] (Plasmodium falciparum, 3D7, 8 h, early and late rings averaged, read-out: Average IC50, rings), 5.56 µM; in assay [1] (Plasmodium falciparum, 3D7, 8 h, early and late trophozoites averaged, read-out: Average IC50, trophozoites), 3.25 µM; in assay [1] (Plasmodium falciparum, 3D7, 8 h, first shift of biphasic curve, read-out: Mean IC50, schizont biphasic shift 1) it was 0.096 µM. Moreover, the IC50 is 3.93 µM in assay [1] (Plasmodium falciparum, 3D7, 8 h, second shift of biphasic curve, read-out: Mean IC50, schizont activity shift 2); 5.25 µM in assay [1] (Plasmodium falciparum, 3D7, 8 h, read-out: Mean IC50, early ring stage activity); 3.21 µM in assay [1] (Plasmodium falciparum, 3D7, 8 h, read-out: Mean IC50, early trophozoite activity); 5.87 µM in assay [1] (Plasmodium falciparum, 3D7, 8 h, read-out: Mean IC50, late ring stage activity); 3.28 µM in assay [1] (Plasmodium falciparum, 3D7, 8 h, read-out: Mean IC50, late trophozoite activity); at least 30 µM in assay [2]. Moreover, the IC50 in assay [3] and in assay [4] was at least 30 µM in each case. The “Survival at plateau phase of biphasic schizont curve” value in assay [1] (3D7-A10 schizonts, 8 h exposure) is on record as ~ 58%.
